Assay results published in paper PMC11502128 (Journal of Lipids, 2024).
Read-outs that look alike come from different tables or passages of the source.

Assays:
AMPK gene = test: qRT-PCR AMPK mRNA expression in differentiated 3T3-L1 adipocytes; type: cell-based, Mouse; details: 100 μM, 3 days, not significant versus control
Description: (§1) The mRNA expression of selected lipogenic and lipolytic genes was quantified using qRT–PCR following the established protocol as described by Ndlovu et al.. […] The RNA was extracted with the […] RNA extraction kit. The RNA was then converted into cDNA using an iScript cDNA Synthesis Kit from […] following the manufacturer's protocols. qRT–PCR analysis was performed using Bio-Rad CFX Maestro software. All mRNA expression levels were standardized to ensure consistency using glyceraldehyde 3-phosphate dehydrogenase (GAPDH) as a reference gene. The primers used were designed using the BLAST NCBI online server (https://www.ncbi.nlm.nih.gov/tools/primer-blast/). Data was expressed as fold change relative to the untreated control.

C/EBPα gene = test: qRT-PCR C/EBPα mRNA expression in differentiated 3T3-L1 adipocytes; type: cell-based, Mouse; details: 100 μM, 3 days
Description: as §1

HepG2 cells [1] = test: Oleic acid-induced neutral lipid accumulation in HepG2 cells (NR staining); type: cell-based, human; details: 100 μM, 48 h, HepG2 exposed to 1 mM oleic acid
Description: (§2) The HepG2 cells were seeded in a 96-well plate at a cell density of 5 × 10^4 and left to attach overnight. The cells were incubated at 37°C, 5% CO2 for 48 h, and 1 mM OA (final concentration) to stimulate lipid accumulation. […] Control cells were exposed to either the vehicle control or sterile PBS.
(§3) With NR staining, the accumulation of neutral lipids was assessed in the differentiated 3T3-L1 cells and OA-induced lipid accumulation in HepG2 cells following treatment with the triterpenoids. The cells were washed with PBS and fixed with 4% formaldehyde for 1 h, and then the cells were stained with the NR staining solution (100 μM in 100% DMSO) in the dark for 3 h. Background fluorescence was measured at an excitation and an emission wavelength of 485 nm and 590 nm (Ex4850 and Em590), respectively. The dye solution was then discarded, the wells were then rinsed with PBS, and the plate was blotted dry. The dye was extracted from the stained cells with 100 μL PBS, and the fluorescence was measured again at Ex450 and Em590. The difference in fluorescence between the extracted dye and background fluorescence was calculated. The percentage of intracellular lipid accumulation relative to the untreated control cells was calculated.

HSL gene = test: qRT-PCR HSL mRNA expression in differentiated 3T3-L1 adipocytes; type: cell-based, Mouse; details: 100 μM, 3 days
Description: as §1

[2] = tested on: differentiated 3T3-L1 cells; test: Glycerol release from isoproterenol-stimulated differentiated adipocytes (lipolysis); type: cell-based, Mouse; details: 100 μM, 3 days, then 100 nM isoproterenol 3 h
Description: Subsequently, the cells were exposed to isoproterenol (final concentration of 100 nM) for 3 h to stimulate lipolysis. The glycerol levels released into the medium were used as a measure of lipolysis evaluated using a commercial lipolysis colorimetric assay kit (MAK211) according to the manufacturer's instructions. Cell viability of the lipolysis-induced adipocytes was determined with CV staining.

[3] = tested on: differentiated 3T3-L1 adipocytes; test: Intracellular lipid accumulation in differentiated 3T3-L1 adipocytes (ORO staining); type: cell-based, Mouse; details: 100 μM, 3 days, differentiated 3T3-L1, relative to control
Description: (§4) The differentiation of 3T3-L1 cells was performed as described by Ibrahim et al. with slight modifications. The preadipocyte cells were seeded at a concentration of 0.2 × 10^4 per 100 μL into each of the wells of a 96-well plate and were grown at 37°C with 5% CO2 for 3 days, until confluent. On Day 4, differentiation was induced by replacing the medium with 100 μL Differentiation Medium 1 (DM1, DMEM supplemented with final concentrations of 10 μg/mL insulin, 0.5 mM isobutyl methylxanthine, 1 μM dexamethasone, and 2 μM rosiglitazone) for further 3 days. On Day 8, DM1 was replaced with DM2 (DMEM with only 10 μg/mL insulin) for 3 days. Finally, DM2 was replaced with only DMEM, and the cells were exposed to the different concentrations (1–100 μM) of the test compounds for a further 3 days. Control cells were exposed to either the vehicle control or sterile PBS.
The ORO staining technique was used to detect lipid droplets in both differentiated adipocytes and OA-exposed hepatocytes. […] The ORO dye was then extracted with 60% isopropanol, and the absorbance was measured at 405 nm. For the 3T3-L1 cells, the percentage of lipid accumulation was relative to the control cells (PBS-treated) cells, with 100% lipid formation, while for HepG2, the results were expressed as the percentage of lipid accumulation relative to cells exposed to OA.

[4] = tested on: differentiated 3T3-L1 adipocytes; test: Neutral lipid accumulation in differentiated 3T3-L1 adipocytes (NR staining); type: cell-based, Mouse; details: 100 μM, 3 days, differentiated 3T3-L1, relative to control
Description: as §4, with “Finally, DM2 was replaced with only DMEM, and the cells were exposed to the different concentrations (1–100 μM) of the test compounds for a further 3 days. Control cells were exposed to either the vehicle control or sterile PBS.” left out
as §3, with “The cells were washed with PBS and fixed with 4% formaldehyde for 1 h, and then the cells were stained with the NR staining solution (100 μM in 100% DMSO) in the dark for 3 h.” left out, “The dye solution was then discarded, the wells were then rinsed with PBS, and the plate was blotted dry.” left out

PPARγ gene = test: qRT-PCR PPARγ mRNA expression in differentiated 3T3-L1 adipocytes; type: cell-based, Mouse; details: 100 μM, 3 days
Description: as §1

HepG2 cells [5] = test: Cell viability assessment (crystal violet), HepG2; type: cell-based, human; details: triterpenoids at 25 and 100 μM; lovastatin 50 μM
Description: The 3T3-L1 and HepG2 cells (at 70%–80% confluence) were seeded at concentrations of 0.2 × 10^4 per 100 μL and 5.0 × 10^4 per 100 μL, respectively, in a 96-well plate. […] Control cells were exposed to either 0.01% methanol (vehicle control) or sterile phosphate buffered saline (PBS) pH 7.4. Following the exposure, the cells were fixed with 20% formalin (final concentration 2% [v/v]) at 37°C for 30 min. The solution was discarded, and the plate was blotted dry. The cells were stained with the addition of 100 μL f CV (0.1% in 200 mM formic acid) to each well. After 30 min at room temperature, the dye solution was removed, and the plate was washed well with tap water and dried. The dye was then extracted from the stained cells with 100 μL of a 10% (v/v) acetic acid solution. The absorbance was measured at 630 nm, and the results were expressed as percentage cell viability relative to the control (cells treated with PBS).

HepG2 cells [6] = test: Oleic acid-induced hepatic lipid accumulation in HepG2 cells (ORO staining); type: cell-based, human; details: 100 μM, 48 h, HepG2 exposed to 1 mM oleic acid
Description: as §2
The ORO staining technique was used to detect lipid droplets in both differentiated adipocytes and OA-exposed hepatocytes. The cells were fixed with 2% (v/v) formaldehyde for 30 min at 37°C. The formaldehyde was then discarded, and the plates were air-dried. The fixed cells were stained with ORO staining solution (three parts of 0.5% ORO (w/v) in 60% isopropyl alcohol and two parts of water) for 1 h. After staining, the excess ORO was discarded, and the plates were rinsed with water and dried. Microscopic images were acquired with an Olympus microscope (Olympus, Tokyo, Japan). The ORO dye was then extracted with 60% isopropanol, and the absorbance was measured at 405 nm. For the 3T3-L1 cells, the percentage of lipid accumulation was relative to the control cells (PBS-treated) cells, with 100% lipid formation, while for HepG2, the results were expressed as the percentage of lipid accumulation relative to cells exposed to OA.

[7] = molecular target: T1, porcine PNLIP (pancreatic lipase) (Sus scrofa, UniProt P00591); test: PNLIP inhibition and enzyme kinetics with p-nitrophenyl palmitate; type: biochemical; details: for Pancreatic lipase Mode of inhibition: Lineweaver–Burk plot
T1 sequence (P00591 1-450): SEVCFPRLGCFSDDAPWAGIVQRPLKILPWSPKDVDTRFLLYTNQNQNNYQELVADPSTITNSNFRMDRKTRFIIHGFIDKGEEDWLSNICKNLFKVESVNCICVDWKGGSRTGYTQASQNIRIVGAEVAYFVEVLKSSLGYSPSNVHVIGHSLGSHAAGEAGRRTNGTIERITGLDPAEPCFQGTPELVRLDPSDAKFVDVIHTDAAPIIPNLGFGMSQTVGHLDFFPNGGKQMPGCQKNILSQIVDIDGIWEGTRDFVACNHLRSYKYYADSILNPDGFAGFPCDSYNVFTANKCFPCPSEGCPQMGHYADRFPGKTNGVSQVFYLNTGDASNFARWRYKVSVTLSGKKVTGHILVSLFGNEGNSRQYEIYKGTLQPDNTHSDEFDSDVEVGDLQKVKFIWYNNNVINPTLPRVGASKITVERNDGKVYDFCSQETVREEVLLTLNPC
Description: The PNLIP inhibitory activity of the compounds was tested using p-nitrophenyl palmitate (p-NPP) as an artificial substrate. […] The reaction was initiated by adding 10 mM p-NPP at 37°C for 20 min. Then, the enzyme activity was determined calorimetrically by measuring the release of p-nitrophenol measured at 405 nm using a SpectraMax paradigm microplate reader (Molecular Devices Inc, San Jose, California). The IC50 values were determined using nonlinear regression from the absorbance versus concentration curves.
The modes of enzyme inhibition were determined using the reaction protocol described above. While all the other parameters remained unchanged, the enzyme activity was measured at increasing substrate concentrations (2–10 mM) in the presence and absence of the test compound (inhibitor). Double reciprocal (Lineweaver–Burk) plots were generated and used to determine the inhibition types Km and Vmax. The inhibitory constants (Ki) of the test compounds were also calculated.

C/C(=C/CC[C@H](C(=O)O)C1CC[C@]2(C)C3=CCC4C(C)(C)[C@H](O)CC[C@]4(C)C3CC[C@@]12C)CO (stereo partly drawn) [ARM-2, 3α,26-dihydroxytirucalla-7,24-dien-21-oic acid]
increase in the expression of the AMPK gene (AMPK gene): 39.10%
reduction of C/EBPα gene expression (C/EBPα gene): 55.65%
reduction in neutral lipid accumulation (NR staining) (HepG2 cells [1]): 40%
reduction of HSL gene expression (HSL gene): 60.38%
decrease in glycerol release [2]: 36.47%
decrease in lipid accumulation (ORO staining) [3]: 22.21%
reduction in neutral lipid accumulation (NR staining) [4]: 19.27%
reduction of PPARγ gene expression (PPARγ gene): 59.30%
cytotoxicity in the HepG2 model (abstract) (HepG2 cells [5]): lacked cytotoxicity
reduction of OA-induced lipid accumulation (ORO staining) (HepG2 cells [6]): 31.56%
Pancreatic lipase Mode of inhibition [7]: Noncompetitive
Ki ([7]; Lineweaver–Burk, substrate 2–10 mM, mean ± SEM (n = 3), read-out: Pancreatic lipase Ki): 52.9 ± 7.19 µM
IC50 ([7]; porcine PNLIP, p-NPP substrate, pH 7.4, 37°C, mean ± SEM (n = 3), read-out: Pancreatic lipase IC50): 35.8 ± 12.4 µM

CCCCCCCCCCC[C@@H](C[C@@H]1OC(=O)[C@H]1CCCCCC)OC(=O)[C@H](CC(C)C)NC=O [Orlistat, orlistat, reference compound]
Pancreatic lipase Mode of inhibition [7]: Uncompetitive

CC(C)=CCCC(C(=O)O)C1CCC2(C)C3CCC4C(C)(CCC(O)C4(C)C)C3=CCC12C (stereo not drawn) [RA-5, 3β-hydroxylanosta-9,24-dien-21-oic acid]
increase in the expression of the AMPK gene (AMPK gene): 28.05%
reduction of C/EBPα gene expression (C/EBPα gene): 49.72%
reduction in neutral lipid accumulation (NR staining) (HepG2 cells [1]): 39%
reduction of HSL gene expression (HSL gene): 66.54%
decrease in glycerol release [2]: 34.72%
decrease in lipid accumulation (ORO staining) [3]: 20.67%
reduction in neutral lipid accumulation (NR staining) [4]: 10.37%
reduction of PPARγ gene expression (PPARγ gene): 77.40%
cytotoxicity in the HepG2 model (abstract) (HepG2 cells [5]): lacked cytotoxicity
reduction of OA-induced lipid accumulation (ORO staining) (HepG2 cells [6]): 23.47%
IC50 [7]: 27.6 ± 8.51 µM
Ki [7]: 28.7 ± 8.84 µM
Pancreatic lipase Mode of inhibition [7]: mixed type of inhibition
